Source: patent US20160120915A1, “METHODS FOR MANIPULATING IMMUNE RESPONSES BY ALTERING MICROBIOTA” (NEW YORK UNIVERSITY, priority 2013, published 2016)

Assays:
terminal ileum [1] = experiment: PAT: ileal expression by qPCR in 6-week mice; format: in vivo, C57BL/6 mice; conditions: 6-week male mice, 3 pulses, vs control, p<0.05
Method: Total RNA was extracted from mouse tissues using the RNeasy Mini Kit (Qiagen), according to the manufacturer's instructions. Total RNA was reverse transcribed to cDNA using the Verso™ cDNA Synthesis Kit (Thermo Scientific). To generate standards for expression analysis of each target gene, the cDNA region of interest was PCR-amplified and the PCR product was cloned into pGEM-T easy (Promega). qPCR was performed with LightCycler 480 SYBR Green I Master mix (Roche) and run in a LightCycler 480 system (Roche). Target mRNA was normalized to GAPDH mRNA as an internal control in each sample.
C57BL/6 mice were fed a standard diet after weaning, and exposed to 3 pulses of therapeutic dose antibiotics (Amoxicillin or Tylosin), or no antibiotics, via their drinking water, all before 6 weeks of age. Mice were sacrificed at 6 weeks of age.
The distal ileum (1 cm) without Peyer's Patches was collected from each mouse for RNA extraction and kept in RNAlater (Ambion) overnight at 4° C. Samples were stored at −80° C. until RNA extraction was performed.
Panel A: Mice were exposed to 3 pulses of antibiotics (Amoxicillin or Tylosin), or no antibiotics, via breast milk or drinking water at the indicated time points. Panel B: Male mice, including 5 Control, 4 Amoxicillin, and 6 Tylosin, were fed a normal diet. They were sacrificed at 6 weeks of age and the terminal[1 cm] ileum without Peyer's Patches [TI-] was collected.
Ileal expression of T-bet and IFN-γ [Th1], GATA3 and IL-4 [Th2], Foxp3, and TGFβ1 [Treg], and RORγt, IL-17A, and IL-17F [Th17] (Control n=5, Amoxicillin n=4, Tylosin n=6) was quantitated with qPCR and normalized by GAPDH expression. Expression of T-bet and IFNγ [Th1] (p<0.05) and IL-17A and IL-17F [Th17] […] Foxp3 and RORγt were lower in Tylosin than control. This example extends the earlier observation that continuous antibiotics affect ileal immune cell populations and effectors by showing that pulses are sufficient to produce similar effects.

terminal ileum [2] = experiment: PAT: ileal gene expression profiling by whole genome microarray, 6-week mice; format: in vivo, C57BL/6 mice; conditions: 6-week PAT vs Control, T-test p<0.05 and fold change ≧1.2 or ≦0.8
Method: Ileal gene expression profiling of STAT, PAT, and control animal groups, was performed using the Affymetrix Genechip system (Affymetrix). Total RNA quality and quantity were determined using the Agilent 2100 Bioanalyser and Nanodrop ND-1000. Total RNA (100 ng) was used to prepare cDNA following the Affymetrix […] Express Kit labelling protocol (Affymetrix). Standardized array processing procedures recommended by Affymetrix were performed, including hybridization, fluidics processing and scanning of the Affymetrix MG-430 2.0 arrays. GeneSpring GX11 software (Agilent Technologies) was used to normalize the raw data (Affymetrix CEL files) by Robust Multichip Average algorithm (RMA).
1127 and 3065 reproducibly regulated genes were identified from ˜45,000 genes of the mouse genome by T-test (p<0.05) and fold change (≧1.2 or ≦0.8) in 6-week PAT (Panel A; Control vs Amoxicillin and Panel B; Control vs Tylosin), respectively (FIG. 22). DAVID analysis was performed using the regulated genes, and Gene Set Enrichment analysis (GSEA) was performed using whole gene data.
(C, n=3), amoxicillin (A, n=3), and tylosin treated mice (T, n=3).

[3] = asthma; cited from earlier work

Structure (SMILES) | ileal expression of IFNγ [Th1] (terminal ileum [1]) | ileal expression of IL-17A [Th17] (terminal ileum [1]) | ileal expression of IL-17F [Th17] (terminal ileum [1]) | ileal expression of T-bet [Th1] (terminal ileum [1]) | reproducibly regulated genes out of ~45,000 genes of the mouse genome (terminal ileum [2]) | airway hyperresponsives (AHR) [3] | neutrophilic inflammation [3]
CC1(C)S[C@@H]2[C@H](NC(=O)[C@H](N)c3ccc(O)cc3)C(=O)N2[C@H]1C(=O)O [Amoxicillin] | significantly lower | significantly lower | significantly lower | significantly lower | 1127 | – | –
CC[C@H]1OC(=O)[C@H](C)[C@@H](O[C@H]2C[C@@](C)(OC)[C@@H](O)[C@H](C)O2)[C@H](C)[C@@H](O[C@@H]2O[C@H](C)C[C@H](N(C)C)[C@H]2O)[C@](C)(OC)C[C@@H](C)C(=O)[C@H](C)[C@@H](O)[C@]1(C)O [clarithromycin] | – | – | – | – | – | reduced | reduced
